US20030187058A1, “Combination of lipoic acids and conjugated acids for treating diabetic disorders” (priority 2000, published 2003)

Key:
[1] = system: patients with type II diabetes; conditions: single parenteral dose of 1,000 mg; cited from earlier work
NIDDM patients = conditions: 800 mg each day for 4 months; cited from earlier work
diabetic polyneuropathy = conditions: 3-week intravenous and subsequent 6-months oral treatment, cited from earlier work
diabetic neuropathy = conditions: intravenous 600 mg a day for 3 weeks; cited from earlier work
epitrochlearis muscle = test: 2-Deoxyglucose uptake (glucose transport activity) in epitrochlearis muscle removed from treated obese Zucker rats, incubated in vitro; format: in vivo, obese Zucker rat (fa/fa); conditions: obese Zucker rats treated 18-20 days; for 2-Deoxyglucose level, Increase: insulin-stimulated minus basal; for 2-Deoxyglucose level, + Insulin [5 mU/ml] / 2-Deoxyglucose level, Basal: R-LA 10 mg/kg ip, CLA 0.3 mg/kg (table) by gavage; for 2-Deoxyglucose level, + Insulin [5 mU/ml]: insulin 5 mU/ml in vitro; for 2-Deoxyglucose level, Basal: no insulin
Source text: (§1) The obese Zucker rat (fa/fa) is an animal model of insulin resistance, glucose intolerance, hyperinsulinaemia and dyslipidaemia. This model was used to determine the effect of four different forms of diet (control, R-lipoic acid (R—LA), conjugated linoleic acid (CLA) and a combination of conjugated linoleic acid and R-lipoic acid) on insulin-induced skeletal muscle glucose transport activity and on glucose tolerance.
(§2) The test animals were maintained on regular chow and water ad libitum. […] R-lipoic acid was administered by intraperitoneal injection; conjugated linoleic acid by gavage. The treatment period lasted for 18-20 days.
(§3) 24 hours after the final treatment and having been restricted to 4 g chow during the previous 13 hours, animals were deeply anaesthetised with pentobarbital sodium (50 mg/kg ip). Right soleus muscles and both right and left epitrochlearis muscles were surgically removed and prepared for incubation in vitro. Muscles were prepared as described by Peth J A et al. (Am J Physiol Regulatory Integrative Comp Physiol 2000; 278: R453-R459). Glucose transport activity was then determined as described by Hendriksen and Halseth (J Appl Physiol 1994; 76: 1862-1867).

skeletal muscle = test: Insulin-induced skeletal muscle glucose transport activity in treated obese Zucker rats (summary statement); format: in vivo, obese Zucker rat (fa/fa); conditions: each substance alone
Source text: as §1
The test animals were maintained on regular chow and water ad libitum. At the age of 9-10 weeks, the animals were assigned to either a vehicle-treated control group or to intervention groups receiving either R-lipoic acid (10 mg/kg bodyweight), conjugated linoleic acid (c9,t11:t10,c12; 50:50; 0.3 g/kg bodyweight) or both. R-lipoic acid was administered by intraperitoneal injection; conjugated linoleic acid by gavage. The treatment period lasted for 18-20 days.
24 hours after the final treatment and having been restricted to 4 g chow during the previous 13 hours, animals were deeply anaesthetised with pentobarbital sodium (50 mg/kg ip). Right soleus muscles and both right and left epitrochlearis muscles were surgically removed and prepared for incubation in vitro. […] Glucose transport activity was then determined as described by Hendriksen and Halseth (J Appl Physiol 1994; 76: 1862-1867).

soleus muscle = test: 2-Deoxyglucose uptake (glucose transport activity) in soleus muscle removed from treated obese Zucker rats, incubated in vitro; format: in vivo, obese Zucker rat (fa/fa); conditions: obese Zucker rats treated 18-20 days; for 2-Deoxyglucose level, Increase: insulin-stimulated minus basal; for 2-Deoxyglucose level, + Insulin [5 mU/ml] / 2-Deoxyglucose level, Basal: R-LA 10 mg/kg ip, CLA 0.3 mg/kg (table) by gavage; for 2-Deoxyglucose level, + Insulin [5 mU/ml]: insulin 5 mU/ml in vitro; for 2-Deoxyglucose level, Basal: no insulin
Source text: as §1, §2, §3

O=C(O)CCCCC1CCSS1 (stereo not shown) [lipoic acid, 5-(1,2-dithiolan-3-yl)valeric acid]
glucose utilization [1]: distinct improvement
cardiovascular autonomic symptoms (NIDDM patients): no significant change
neuropathic deficits (diabetic polyneuropathy): appeared to have a beneficial effect
neuropathic symptoms (diabetic polyneuropathy; versus placebo): no effect on neuropathic symptoms distinguishable from placebo
symptomatic complaints (diabetic neuropathy): decreased

conjugated linoleic acid [CLA]
2-Deoxyglucose level, Increase (epitrochlearis muscle): 123 +/− 13 pmol/mg muscle
2-Deoxyglucose level, + Insulin [5 mU/ml] (epitrochlearis muscle): 248 +/− 14 pmol/mg muscle
2-Deoxyglucose level, Basal (epitrochlearis muscle): 126 +/− 4 pmol/mg muscle
skeletal muscle glucose transport activity following stimulation by insulin, beyond the increase in the vehicle-treated control group (skeletal muscle): Neither R-lipoic acid nor conjugated linoleic acid alone increased
2-Deoxyglucose level, Increase (soleus muscle): 261 +/− 13 pmol/mg muscle
2-Deoxyglucose level, + Insulin [5 mU/ml] (soleus muscle): 492 +/− 9 pmol/mg muscle
2-Deoxyglucose level, Basal (soleus muscle): 231 +/− 6 pmol/mg muscle

O=C(O)CCCC[C@@H]1CCSS1 [R-LA, (R)-5-(1,2-dithiolan-3-yl)-valeric acid]
2-Deoxyglucose level, Increase (epitrochlearis muscle): 102 +/− 11 pmol/mg muscle
2-Deoxyglucose level, + Insulin [5 mU/ml] (epitrochlearis muscle): 225 +/− 8 pmol/mg muscle
2-Deoxyglucose level, Basal (epitrochlearis muscle): 123 +/− 3 pmol/mg muscle
skeletal muscle glucose transport activity following stimulation by insulin, beyond the increase in the vehicle-treated control group (skeletal muscle): Neither R-lipoic acid nor conjugated linoleic acid alone increased
2-Deoxyglucose level, Increase (soleus muscle): 258 +/− 16 pmol/mg muscle
2-Deoxyglucose level, + Insulin [5 mU/ml] (soleus muscle): 481 +/− 19 pmol/mg muscle
2-Deoxyglucose level, Basal (soleus muscle): 224 +/− 7 pmol/mg muscle
